Reference: patent US20240059739A1, “PEPTIDES FOR INCREASING DRUG DELIVERY TO CANCER” (Chapman University, priority 2022, published 2024)

tested on: human melanoma cell lines (A375, Sk-mel-28, wm115) compared to normal human HEK-293 cells; experiment: Peptide array-whole cell binding assay (CyQUANT fluorescence); format: cell-based; conditions: average fluorescent intensity of melanoma cells (A375, Sk-mel-28, wm115) bound to peptide divided by that of HEK-293 cells bound to same peptide
Text: Peptide array synthesis. Fifty-three peptide sequences were synthesized in duplicate on derivatized cellulose membrane (Intavis, Germany) using a ResPep SL Autospot robot. The detailed method was explained previously (Ahmed et al. Anal Chem. 82:7533-7541, 2010; Hossein-Nejad-Ariani et al. Sci Rep. 9:2723, 2019). Briefly, the sequences of peptides were entered in the robot software, and 384 spot synthesis mode was selected for this library. First, the membrane was dipped in DMF for an hour followed by transfer and support to the holder of the robot on filter paper. Then the membrane was washed with ethanol and subjected to a vacuum to remove any bubbles under the membrane. The Fmoc strategy was used for peptide synthesis. DIC and Oxyma pure were used as coupling reagent and racemization suppressor, respectively. After each coupling, capping of unreacted amino acids was done using acetic anhydride (3%), followed by 20% piperidine for Fmoc deprotection. The C-terminal end of all peptides were bound to the membrane. Following the synthesis, the membrane was dipped in deprotection solution containing 15 mL TFA, 15 mL DCM, 900 μL TIPS, and 600 μL water, and kept for 3 h at room temperature. Next, membranes were thoroughly washed with DCM, DMF, and ethanol. Finally, they were air dried and kept in a sealed bag at −20° C. until use.
Peptide array cell binding assay. The sequential steps of the assay are as described in a previous publication (Ahmed et al. 2010; Soudy et al. J Med Chem. 54:7523-7534, 2011). The membrane was dipped in ethanol for 30 sec to remove any precipitation of hydrophobic peptides. Then the membrane was dipped in sterile PBS at pH 7.4 for 30 min. The cells (75×10^3 cells/mL) were seeded directly on the membrane in a sterile plate and incubated at 37° C. for 4 h. After washing off the unbound cells with sterile PBS, pH 7.4, the membrane was frozen at −80° C. for 2 h. Subsequently, it was defrosted at room temperature and incubated in CyQUANT solution at 37° C. for 30 min following the manufacturer's protocol. The membrane was then washed with sterile PBS and air-dried.
Membranes were scanned using the ChemiDoc™ XRS+system (Bio-Rad) to analyze the fluorescence intensity of each spot. The setting was adjusted based on the excitation and emission wavelength of the CyQUANT dye at 465 nm and 535 nm, respectively. The fluorescence intensity (FI) was normalized by the FI of non-cancerous HEK-293 cells.
A library of 53 peptides was synthesized in an array format on a cellulose membrane using SPOT synthesis (Table 1). The peptide library was designed starting with five lead cancer cell targeting peptides, Arg peptide (1, Table 1), p160 analogue (11), RGD (16), GE11 (20), and LSD (37). Conservative substitutions, deletion from the N- or C-terminus, alanine scan, and scrambling of amino acids were used to design the analogues for the library. The peptides were screened for specific binding to three human melanoma cell lines. The cells were incubated with the cellulose membranes with conjugated peptides followed by incubation with CyQUANT fluorescence dye. A brief schematic for the peptide array-whole cell binding assay for screening peptides with high affinity for melanoma cells is shown in FIG. 2A. The relative cell adhesion capacities of the peptides to A375 (FIG. 2B), Sk-mel-28 (FIG. 2C), and wm115 were estimated based on the fluorescence of the bound melanoma cells compared to normal human HEK-293 cells.

| Substance | Fluorescence Ratio |
| --- | --- |
| ADRSKGKLA [Peptide 39] | 1.27 |
| AGRKLDSKA [Peptide 38] | 1.39 |
| AHWYGYTPQNVI [Peptide 23] | 1.31 |
| ALSDGKRKA [Peptide 40] | 1.23 |
| ALSGKRKC [Peptide 41] | 1.32 |
| CASDGKRKC [Peptide 42] | 1.25 |
| CLADGKRKC [Peptide 43] | 1.26 |
| CLSAGKRKC [Peptide 44] | 1.44 |
| CLSDAKRKC [Peptide 45] | 1.22 |
| CLSDGARKC [Peptide 46] | 1.35 |
| CLSDGKAKC [Peptide 47] | 1.27 |
| CLSDGKRAC [Peptide 48] | 1.12 |
| CLSDGKRKA [Peptide 49] | 1.57 |
| CLSDGKRKC [Peptide 37] | 1.29 |
| CLSDGKRRC [Peptide 52] | 1.27 |
| CLSDGRRKC [Peptide 51] | 1.32 |
| CLSEGKRKC [Peptide 50] | 1.38 |
| EPAAYQRFTA [Peptide 13] | 1.39 |
| FVPWLEAPYA [Peptide 15] | 1.61 |
| GARPRPRPRP [Peptide 6] | 1.37 |
| GRAPRPRPRP [Peptide 7] | 1.47 |
| GRRPAPRPRP [Peptide 8] | 1.57 |
| GRRPRPAPRP [Peptide 9] | 1.51 |
| GRRPRPRPAP [Peptide 10] | 1.31 |
| GRRPRPRPRPW [Peptide 2] | 1.60 |
| GRRPRPRPRPWW [Peptide 3] | 1.50 |

| Substance | Fluorescence Ratio |
| --- | --- |
| GRRPRPRPRPWWW [Peptide 4] | 1.46 |
| GRRPRPRPRPWWWW [Peptide 5] | 1.43 |
| RGDAAYQRFL [Peptide 16] | 1.47 |
| RGDPAYQGRFL [Peptide 19] | 1.35 |
| RGEPAYQGRFL [Peptide 18] | 1.24 |
| RGEPAYQRFL [Peptide 17] | 1.30 |
| RVPWLEAPYA [Peptide 14] | 1.42 |
| WLSDGKRKC [Peptide 53] | 1.12 |
| WQTNYIHPYVYG [Peptide 21] | 1.21 |
| WXEAAYQRFL [Peptide 12] | 1.31 |
| YAWYGYTPQNVI [Peptide 24] | 1.15 |
| YGPWYNHYITQV [Peptide 22] | 1.28 |
| YHAYGYTPQNVI [Peptide 25] | 1.28 |
| YHWAGYTPQNVI [Peptide 26] | 1.29 |
| YHWYGATPQNVI [Peptide 27] | 1.19 |
| YHWYGTPQNVI [Peptide 20] | 1.20 |
| YHWYGYAPQNVI [Peptide 28] | 1.26 |
| YHWYGYTAQNVI [Peptide 29] | 1.32 |
| YHWYGYTPANVI [Peptide 30] | 1.30 |
| YHWYGYTPENVI [Peptide 34] | 1.36 |
| YHWYGYTPQAVI [Peptide 31] | 1.33 |
| YHWYGYTPQDVI [Peptide 35] | 1.35 |
| YHWYGYTPQKVI [Peptide 36] | 1.23 |
| YHWYGYTPQNAI [Peptide 32] | 1.29 |
| YHWYGYTPQNVA [Peptide 33] | 1.35 |

tested on: human melanoma A375 tumor xenografts and organs; experiment: In vivo and ex vivo imaging of biodistribution in mice bearing A375 xenografts; set-up: species or system athymic nude mice; conditions: ex vivo imaging
Method: FIG. 4A and FIG. 4B-1 and FIG. 4B-2 show in vivo and ex vivo organ distribution images of VivoTag 680 XL-labeled D-aa KK-11 in athymic nude mice bearing human melanoma A375 tumors. Saline or VivoTag-KK-11 in a dose of 8 μg per mouse was injected into the mice via the tail vein (n=2 for each time point).
The top panels represent the scanned images of the tumor section area in coronal views. The bottom-row pictures display the fluorescence image in trans-axial views: arrows point to the spine, and circles mark the xenograft tumors.
Organs including tumor xenografts (T), liver (L), spleen (S), heart and lungs (H+L), kidneys (K), and brain (B) were excised and imaged using the IVIS Spectrum imaging system. Representative fluorescence images of different organs show peptide distribution at different time points as indicated.
Ex vivo and in vivo imaging. The study was carried out in compliance with Animal Research: Reporting of In Vivo Experiments (ARRIVE) guidelines. All the animal procedures were approved by the Institutional Animal Care and Use Committee (IACUC) at Chapman University and conducted in compliance with the policies of Chapman University, and federal, state, and local animal welfare authorities. Male and female athymic nude mice (4-6 weeks old) were kept (5 in each cage) in a pathogen-free environment. Approximately 10^6 human melanoma A375 cells (0.1 mL in normal saline), mixed with 0.1 mL cold Matrigel (#354248; Corning, Corning, NY), were injected subcutaneously in the flank. The tumor size was measured with a caliper, and body weight was recorded once a week. When the tumor size reached approximately 800-1000 mm^3 as calculated using the following formula: [Length×(Width^2)]/2 (in mm), mice were processed for in vivo or ex vivo imaging.
For in vivo imaging, normal saline or VivoTag-KK-11 at a dose of 8 μg per mouse was injected into the mice via the tail vein (n=2 for each time point). The animals were then scanned at different time intervals (0.5, 2, 6, and 24 h) using an IVIS Spectrum in vivo imaging system (PerkinElmer, Waltham, MA). The mice were imaged for 0.5 sec, 10 bin, level B at an emission wavelength of 688±5 nm. Imaging was limited to no more than once a day and was conducted under continuously maintained isoflurane. Mice were maintained on alfalfa-free diets to minimize the background fluorescence. All the study animals survived through the in vivo imaging procedure.
For ex vivo imaging at defined time intervals (5, 15, 30 min, followed by 1, 1.5, 2, 3, 4, 6, 24, and 48 h) following fluorescence conjugate injection, animals were euthanized via carbon dioxide inhalation (n=2 for each time point); tumor, liver, spleen, heart, lungs, brain, and kidneys were collected and briefly rinsed with saline. The organs were then imaged for 0.5 sec, 10 bin, level B at an emission wavelength of 688±5 nm using an IVIS Spectrum imaging system.

| Substance | brain penetration | time by which cleared from other organs (lungs, heart, spleen) [h] | time detected in kidneys |
| --- | --- | --- | --- |
| VivoTag- Aβ-VPWxEPAYQrFL [VivoTag-KK-11] | no brain penetration was observed | ≤ 6 | up to 48 h |

same assay, conditions: ex vivo imaging, 8 μg per mouse, tail vein

| Substance | time at which fluorescence is evident in tumor xenografts [min] |
| --- | --- |
| VivoTag- Aβ-VPWxEPAYQrFL [VivoTag-KK-11] | ≤ 5 |

same assay, conditions: in vivo IVIS CT-fluorescence imaging of live mice

| Substance | time by which distributed to the xenograft tumor [min] | time fluorescence remained detectable in tumor xenografts [h] |
| --- | --- | --- |
| VivoTag- Aβ-VPWxEPAYQrFL [VivoTag-KK-11] | ≤ 30 | 25 |
